Source: US6936623B2, “Pyrano[2,3-C]imidazo[-1,2-A]pyridine derivatives for the treatment of gastrointestinal disorders” (Altana Pharma AG, priority 2000, dated 2005)

Tested on: pentagastrin-stimulated acid secretion of the perfused rat stomach
Conditions: perfused rat stomach in vivo, dose 1 μmol/kg i.v.
Procedure: The pH (pH meter 632, glass electrode EA 147; φ=5 mm, Metrohm) and, by titration with a freshly prepared 0.01 N NaOH solution to pH 7 (Dosimat 665 Metrohm), the secreted HCl were determined in the effluent in each case collected at an interval of 15 minutes.
The gastric secretion was stimulated by continuous infusion of 1 μg/kg (=1.65 ml/h) of i.v. pentagastrin (left femoral vein) about 30 min after the end of the operation (i.e. after determination of 2 preliminary fractions).
The body temperature of the animals was kept at a constant 37.8-38° C. by infrared irradiation and heat pads (automatic, stepless control by means of a rectal temperature sensor).

Row | Compound | Inhibition of acid secretion [%]
1 | COCCO[C@@H]1c2ccn3c(C)c(C)nc3c2O[C@H](c2ccccc2)[C@@H]1O [Example 1, (7R,8R,9R)-2,3-Dimethyl-8-hydroxy-7-(2-methoxyethoxy)-9-phenyl-7H-8,9-dihydro-pyrano-[2,3-c]imidazo[1,2-a]pyridine] | 100
2 | CCO[C@@H]1c2ccn3c(C)c(C)nc3c2O[C@H](c2ccccc2)[C@@H]1O [Example 3, (7R,8R,9R)-2,3-Dimethyl-8-hydroxy-7-ethoxy-9-phenyl-7H-8,9-dihydro-pyrano[2,3-c]imidazo-[1,2-a]pyridine] | 100
